Test results as given in patent publication US20260242390A1, “TOTAL SYNTHESES OF PORTIMINE A AND ANALOGUES THEREOF AS SMALL MOLECULE MODULATORS OF NMD3” (priority 2023, published 2026).

System: Jurkat cells
Test: Initial SAR: activity of PAL functionalized PTMA analogs
Format: cell-based, human
Conditions: in the concentrate range
Excerpt: FIG. 3. Initial SAR studies: Assessing activity of PAL functionalized PTMA analogs. […] (A) PA and Ph-PA show less toxic to healthy PBMCs compared to Jurkat cells. […] (B) Immunoblot of caspase-3 in Jurkat and PBMCs with indicated conditions.
• 1) Portimine A and its functional analogs show stereo-selective acute toxicity in cancer cells (FIG. 1). […] (B) Structure of portimine related analogs: phenyl-portimine A (Ph-PA, 36) and epi-portimine A (ePA, 38). Structure of fully functionalized portimine A-based epimeric probe pair: portimine A-diazirine-alkyne (PA-DA, 35-2) and epi-portimine A-diazirine-alkyne (ePA-DA, 35-1). (C) Cell viability analysis of portimine A and analogs. Jurkat cells were treated with increasing concentrations of portimine A and analogs for 24 hours. All presented data as mean of biological replicated experiments (n=3). […] Jurkat cells were treated with portimine A or analogs for 12 hours at 10 nM. […] Structurally related negative control ePA and PB are non-toxic in all cell types in the current concentrate range. PBMCs (25k per well), Jurkat (10k per well). […] Cell cycle analysis in Jurkat cells (FIG. 2). Jurkat cells were treated with 10 nM of indicated compounds for 24 hours, and propodium iodide was used to identify different stages of cells by flow cytometry. […] (A) PA and Ph-PA show less toxic to healthy PBMCs compared to Jurkat cells. […] (B) Immunoblot of caspase-3 in Jurkat and PBMCs with indicated conditions. […] (A) Pharmacokinetic studies of mouse intraperitoneal (i.p.) and oral (p.o.) administration for portimine (n=3). […] Impact of PA [0.3 or 1 mg/kg intraperitoneally] on MC38 tumor growth in WT mice (n=6). (C) Kaplan-Myer survival curve of WT MC38 tumor-bearing mice (n=6) after treatment with PA as described in (D). Mice were euthanized when tumor area exceeded 2000 mm^3. Statistical analysis was performed using ANOVA analysis followed by multiple comparisons test, * p≤0.05. Treatment condition: Jurkat (60 M per condition); PA-DA/ePA-DA concentration: 0.5 uM, PA or ePA: 5 uM; Incubate with probe with or without competitors (PA, ePA) for 30 min; UV irradiated for 20 min. (0.5 uM PA-DA add a no-UV condition), Standard pulldown & biotin-enrichment and western blot analysis (Elute condition: 2× sample buffer+500 uM biotin, boil for 20 mins); Primary antibody NMD3 (ProteinTech, 1:150), Actin (BioRad, 1:10000). […] Cell lysates were fractionated by sucrose gradient (5-50%) and each fraction were analyzed by western blot. eIF6 levels increase in 60S subunit fraction and decrease in ribosome-free fractions after PA treatment. […]

| SMILES | activity of PAL functionalized PTMA analogs |
| --- | --- |
| C#CCCC1(CCNC(=O)c2ccc(C3=C[C@@H]4[C@@H]5O[C@]6(CC[C@H](O6)C(C)C[C@@H](O)C5=O)CC(O)C5=NCC[C@@]54CC3)cc2)N=N1 (stereo partly drawn) [PA-DA, portimine A-diazirine-alkyne] | analogous activity to PTMA |
| C=CC1=C[C@@H]2[C@@H]3O[C@]4(CC[C@H](O4)C(C)C[C@@H](O)C3=O)C[C@@H](O)C3=NCC[C@@]32CC1 (stereo partly drawn) [ePA, epi-portimine A] | no activity |
| C#CCCC1(CCNC(=O)c2ccc(C3=C[C@@H]4[C@@H]5O[C@]6(CC[C@H](O6)C(C)C[C@@H](O)C5=O)C[C@@H](O)C5=NCC[C@@]54CC3)cc2)N=N1 (stereo partly drawn) [ePA-DA, epi-portimine A-diazirine-alkyne] | no activity |
